Measured values from ChEMBL document CHEMBL1130665, “Synthesis and biological evaluation of a water soluble phosphate prodrug of 3-aminopyridine-2-carboxaldehyde thiosemicarbazone (3-AP)” (Bioorg Med Chem Lett, 1998).

What was measured:
[1] = Compound was evaluated for plasma clearance.; assay type: ADME, organism-based, Canis lupus familiaris; conditions: dog
M109 [2] = experiment: In vivo antitumor activity evaluated against M-109 murine lung carcinoma cells in BALB/c mice administered intraperitoneally at a dose of 10 mg/kg; assay type: functional, Mus musculus; conditions: route intraperitoneal
Canis familiaris = species on record: Canis familiaris; experiment: Compound was evaluated for area under the curve in dog blood.; assay type: ADME, organism-based, Canis lupus familiaris; conditions: in vivo
M109 [3] = experiment: In vivo antitumor activity evaluated against M-109 murine lung carcinoma cells in BALB/c mice administered intraperitoneally at a dose of 4.5 mg/kg; assay type: functional, Mus musculus; conditions: route intraperitoneal

| SMILES | clearance [1] [L/h/kg] | Tumor volume reduction (M109 [2]) [%] | AUC (Canis familiaris) [mg/min/L] | Tumor volume reduction (M109 [3]) [%] |
| --- | --- | --- | --- | --- |
| N/C(S)=N/N=C/c1ncccc1NC(=O)OCc1ccc(OP(=O)([O-])[O-])cc1.[Na+].[Na+] | 2.63 | 46 | 74.04 |  |
| NC(=S)N/N=C/c1ncccc1N [TRIAPINE] | 2.44 |  | 71.59 | 30 |
